# Data taken from BindingDB's records for doi:10.1016/j.bmcl.2006.10.060 (Merck Research Laboratories, 2007).
# Test: Antagonist activity against human CCR2 receptor assessed as inhibition of MCP1-induced migration of human peripheral blood monocytes
row,IC50,Compound
1,178 nM,"CCN(CC)CCCC(CC(C)C)NC(=O)CCOc1cc(-c2cc(Cl)cc(Cl)c2)nn1-c1ccc2ccccc2c1 (stereo unspecified) [3-(3-(3,5-dichlorophenyl)-1-(naphthalen-2-yl)-1H-pyrazol-5-yloxy)-N-(1-(diethylamino)-6-methylheptan-4-yl)propanamide]"
2,54 nM,"CCN(CC)CCCC(C)NC(=O)CCNc1cc(-c2cc(Cl)cc(Cl)c2)nn1-c1ccc2ccccc2c1 (stereo unspecified) [3-(3-(3,5-dichlorophenyl)-1-(naphthalen-2-yl)-1H-pyrazol-5-ylamino)-N-(5-(diethylamino)pentan-2-yl)propanamide]"
3,185 nM,"COC(=O)[C@H](CCCN=C(N)N)NC(=O)CCCc1cc(-c2cc(Cl)cc(Cl)c2)nn1-c1ccc2ccccc2c1 [(S)-2-{4-[5-(3,5-dichloro-phenyl)-2-naphthalen-2-yl-2H-pyrazol-3-yl]-butyrylamino}-5-guanidino-pentanoic acid methyl ester]"
4,68 nM,"COC(=O)[C@H](CCCN=C(N)N)NC(=O)CCNc1cc(-c2cc(Cl)cc(Cl)c2)nn1-c1ccc2ccccc2c1 [(S)-2-{3-[5-(3,5-dichloro-phenyl)-2-naphthalen-2-yl-2H-pyrazol-3-ylamino]-propionylamino}-5-guanidino-pentanoic acid methyl ester]"

# Further lines, the compound ahead of its results:
row,Compound,IC50
1,"CCN(CC)CCCC(NC(=O)CCOc1cc(-c2cc(Cl)cc(Cl)c2)nn1-c1ccc2ccccc2c1)C(C)C (stereo unspecified) [3-(3-(3,5-dichlorophenyl)-1-(naphthalen-2-yl)-1H-pyrazol-5-yloxy)-N-(6-(diethylamino)-2-methylhexan-3-yl)propanamide]",32 nM
2,"CCN(CC)CCCC(C)NC(=O)CCOc1cc(-c2cc(Cl)cc(Cl)c2)nn1-c1ccc2ccccc2c1 (stereo unspecified) [3-(3-(3,5-dichlorophenyl)-1-(naphthalen-2-yl)-1H-pyrazol-5-yloxy)-N-(5-(diethylamino)pentan-2-yl)propanamide]",280 nM
3,"CCC(C)CC(CCCN(CC)CC)NC(=O)CCOc1cc(-c2cc(Cl)cc(Cl)c2)nn1-c1ccc2ccccc2c1 (stereo unspecified) [3-(3-(3,5-dichlorophenyl)-1-(naphthalen-2-yl)-1H-pyrazol-5-yloxy)-N-(1-(diethylamino)-6-methyloctan-4-yl)propanamide]",225 nM
4,"CCC(CCCN(CC)CC)NC(=O)CCOc1cc(-c2cc(Cl)cc(Cl)c2)nn1-c1ccc2ccccc2c1 (stereo unspecified) [3-(3-(3,5-dichlorophenyl)-1-(naphthalen-2-yl)-1H-pyrazol-5-yloxy)-N-(6-(diethylamino)hexan-3-yl)propanamide]",83 nM
5,"COC(=O)[C@H](CCCN=C(N)N)NC(=O)CCOc1cc(-c2cc(Cl)cc(Cl)c2)nn1-c1ccc2ccccc2c1 [(S)-2-{3-[5-(3,5-dichloro-phenyl)-2-naphthalen-2-yl-2H-pyrazol-3-yloxy]-propionylamino}-5-guanidino-pentanoic acid methyl ester]",118 nM
6,"CCCC(CCCN(CC)CC)NC(=O)CCOc1cc(-c2cc(Cl)cc(Cl)c2)nn1-c1ccc2ccccc2c1 (stereo unspecified) [3-(3-(3,5-dichlorophenyl)-1-(naphthalen-2-yl)-1H-pyrazol-5-yloxy)-N-(1-(diethylamino)heptan-4-yl)propanamide]",154 nM
7,"O=C(CCCc1cc(-c2cc(Cl)cc(Cl)c2)nn1-c1ccc2ccccc2c1)NCCCc1ccncc1 [4-(3-(3,5-dichlorophenyl)-1-(naphthalen-2-yl)-1H-pyrazol-5-yl)-N-(3-(pyridin-4-yl)propyl)butanamide]",1400 nM
